Patent US10548897B2, “KSR antagonists” (Icahn School of Medicine at Mount Sinai, priority 2015, dated 2020)
Where a name gives a salt, the structure may show the parent alone. Read-outs that look alike come from different tables or passages of the source. Blank lines part the entries; values can stand above or below the compound they belong to.

Legend:
[1] = molecular target: KSR2 (purified hKSR2-rMEK1 complex) (Homo sapiens (Human), UniProt Q6VAB6); test: ATP-biotin probe labeling and inhibitor competition (KSR2 band); type: binding; conditions: for competition of ATPbiotin probe labeling in KSR2:MEK1 complexes (in words): screen / SAR statements; for KSR binding (assessed): panel of known kinase inhibitors
Sequence of KSR2 (purified hKSR2-rMEK1 complex) (Q6VAB6 634-950): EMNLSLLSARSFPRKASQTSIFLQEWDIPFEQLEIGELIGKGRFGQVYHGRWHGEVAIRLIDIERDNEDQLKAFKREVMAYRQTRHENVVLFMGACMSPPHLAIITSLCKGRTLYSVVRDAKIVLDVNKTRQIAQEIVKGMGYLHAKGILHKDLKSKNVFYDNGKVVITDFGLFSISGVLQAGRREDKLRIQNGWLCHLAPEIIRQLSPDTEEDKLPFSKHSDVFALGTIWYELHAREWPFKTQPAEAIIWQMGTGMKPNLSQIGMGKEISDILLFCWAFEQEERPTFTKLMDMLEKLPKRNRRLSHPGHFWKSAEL
Sequence of KSR2 (purified hKSR2-rMEK1 complex) (P29678 whole entry partner, the tested form may be a part): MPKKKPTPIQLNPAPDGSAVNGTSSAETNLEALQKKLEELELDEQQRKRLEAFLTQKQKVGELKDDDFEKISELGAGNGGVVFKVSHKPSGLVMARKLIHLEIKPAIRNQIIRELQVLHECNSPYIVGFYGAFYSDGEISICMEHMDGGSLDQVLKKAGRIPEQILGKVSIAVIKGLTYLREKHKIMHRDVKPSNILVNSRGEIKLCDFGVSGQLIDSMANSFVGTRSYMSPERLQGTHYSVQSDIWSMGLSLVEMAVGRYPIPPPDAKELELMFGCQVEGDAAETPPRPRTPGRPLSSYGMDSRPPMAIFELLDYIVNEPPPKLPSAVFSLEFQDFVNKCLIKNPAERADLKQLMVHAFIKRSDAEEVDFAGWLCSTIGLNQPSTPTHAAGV
Text: Human KSR2 (residues 634-950) and rabbit MEK1 (residues 1 to 393) were codon optimized for insect cell expression by DNA 2.0. Inserts were expressed with TEV cleavable 6×-His tags from the pFastBac Dual expression vector. Bacmids were used to transfect adherent SF21 cells and viruses were subsequently titred to high levels through serial infections of SF21 cells. […] Briefly, following infections, cells were harvested, lysed, and affinity purified using Co2+ sepharose resin (GoldBio). […] Dialysis retentate was diluted 3 fold and then applied to a Resourse S ion exchange column. […] One-to-one hKSR2-MEK1 complexes were captured in late fractions from an increasing salt gradient. Complexes were later applied to a 120 mL Superdex 200 gel filtration column and finally concentrated to approximately 10 mg/mL before flash freezing for biochemical assays.
The ATP-biotin assay was performed in buffer containing 25 mM Tris pH 7.5, 150 mM NaCl, 10 mM MgCl2, and 2% DMSO. […] In particular, hKSR2-rMEK1 was pre-incubated with 20 μM of the indicated compounds for 15 minutes. Then, ATP-biotin (Pierce Cat. #88310) was added to a final concentration of 2 μM. Reactions were incubated at room temperature for 5 minutes before being stopped by the addition of 6×SDS loading dye. […] Enhanced chemiluminescence signals corresponding to labeling on KSR2 and MEK1 were visualized and quantified using the Biodoc system (Biorad). Relative signals of Streptavidin HRP on bands corresponding to KSR2 and MEK1 in the presence of compounds relative to DMSO controls were used to determine ‘Percent Inhibition of ATP Probe Labeling’.
For the ATP^biotin labeling competition screen, samples were applied to a 4-20% Tris-HCl gel, separated, and then transferred to a nitrocellulose membrane. The membrane was blocked with 5% bovine serum albumin diluted in TBS-T for 30 minutes and subsequently probed with the Pierce™ High Sensitivity Streptavidin-HRP. After several washes, the membranes were visualized using enhanced chemiluminescence on a Biodoc (Biorad).

[2] = tested on: MAPK pathway readouts (pERK, pMEK, pRSK) in A375 and HCT-116; test: Western blot of MAPK pathway readouts, treatment with trametinib combinations; type: cell-based; conditions: for MAPK pathway inhibition (pERK, pMEK, pRSK) in combination with trametinib: combined with trametinib, A375 and HCT-116
[3] = molecular target: KSR2:B-RAF^F667E dimers (Homo sapiens, UniProt Q6VAB6); test: Biolayer inferometry of KSR2:B-RAF dimerization (Octet Red96); type: binding; conditions: compound at 25 μM
Description: B-RAF and B-RAF mutants (F667E+/−R509H) were immobilized on sensor-heads and KSR2:MEK1 or MEK1 assembly was monitored. Curves indicate dose ranges of KSR2:MEK1 or MEK1 from 625 nM to 10 μM. In all plots, association occurred from 0 to 660 seconds, and dissociation was monitored thereafter up to 1500 seconds. Compound 21 and trametinib were added in the presence of KSR2:MEK1 at a concentration of 25 μM each.
To directly investigate the impact of Compound 21 on KSR2:B-RAF dimerization, bio-layer inferometry (BLI) was utilized to monitor real-time association and dissociation of KSR2:MEK1 or free MEK1 to a sensor tethered with immobilized B-RAF.
To specifically monitor KSR2:B-RAF dimerization relative to other possible interactions, a mutation in B-RAF^F667E was identified that eliminates binding to free MEK but not KSR2-MEK1 complexes, as shown in FIGS. 7C-7D. […]
Interactions between purified B-RAF and the KSR2:MEK1 complex were measured using biolayer inferometry on the Octet Red96 system (Forte Bio). […] Association and dissociation was monitored over 660 and 840 seconds, respectively. Data sets were normalized and analysed using global fit binding models (Fortebio software). […]

[4] = molecular target: MEK1 (purified hKSR2-rMEK1 complex) (Oryctolagus cuniculus (Rabbit), UniProt P29678); test: ATP-biotin probe labeling competition (MEK1 band); type: binding; conditions: competition with free ATP, purified KSR2:MEK1; read-out: free ATP IC50, ATPbiotin labeling of MEK1
Sequence of MEK1 (purified hKSR2-rMEK1 complex) (P29678 whole entry, the tested form may be a part): as the sequence (P29678 whole entry partner, the tested form may be a part) above
Sequence of MEK1 (purified hKSR2-rMEK1 complex) (Q6VAB6 634-950 partner): as the sequence (Q6VAB6 634-950) above
Text: Human KSR2 (residues 634-950) and rabbit MEK1 (residues 1 to 393) were codon optimized for insect cell expression by DNA 2.0. Inserts were expressed with TEV cleavable 6×-His tags from the pFastBac Dual expression vector. Bacmids were used to transfect adherent SF21 cells and viruses were subsequently titred to high levels through serial infections of SF21 cells. […] Briefly, following infections, cells were harvested, lysed, and affinity purified using Co2+ sepharose resin (GoldBio). […] Dialysis retentate was diluted 3 fold and then applied to a Resourse S ion exchange column. This step removed excess MEK1, which binds weakly to the S column. One-to-one hKSR2-MEK1 complexes were captured in late fractions from an increasing salt gradient. Complexes were later applied to a 120 mL Superdex 200 gel filtration column and finally concentrated to approximately 10 mg/mL before flash freezing for biochemical assays.
The ATP-biotin assay was performed in buffer containing 25 mM Tris pH 7.5, 150 mM NaCl, 10 mM MgCl2, and 2% DMSO. Purified hKSR2-rMEK1 was assayed at 0.5 μM. In particular, hKSR2-rMEK1 was pre-incubated with 20 μM of the indicated compounds for 15 minutes. Then, ATP-biotin (Pierce Cat. #88310) was added to a final concentration of 2 μM. […] Enhanced chemiluminescence signals corresponding to labeling on KSR2 and MEK1 were visualized and quantified using the Biodoc system (Biorad). […]

[5] = tested on: KSR-stimulated MEK and ERK phosphorylation; test: Cell-based reconstitution system monitoring KSR-driven MAPK signaling; conditions: for suppression of KSR-stimulated MEK and ERK phosphorylation: KSR expression-dependent MAPK signaling
Text: To assess the biological function of lead compounds as Ras-MAPK pathway antagonists, a simplified cell-based reconstitution system was developed to directly monitor KSR-driven MAPK signaling. […] Based on similarity in phenotype and direct-binding activity, Compound 21 was identified as a small molecule mimic of KSR alleles that suppress oncogenic Ras mutations.

[6] = ATPbiotin probe labeling competition, 0.1 μM KSR2:MEK1, 27 nM to 20 μM compound, triplicate, read-out: KSR2 IC50

SMILES: COc1cc2ncnc(Nc3ccc(Oc4ccccc4)cc3)c2cc1OC.Cl [Compound 2, 6,7-Dimethoxy-N-(4-phenoxyphenyl)quinazolin-4-amine]
competition of ATPbiotin probe labeling in KSR2:MEK1 complexes (in words) [1]: competitor of probe labeling

SMILES: Cc1nc(Nc2ncc(C(=O)Nc3c(C)cccc3Cl)s2)cc(N2CCN(CCO)CC2)n1 [dasatinib, reference compound]
KSR binding (assessed) [1]: non-KSR binders
MAPK pathway inhibition (pERK, pMEK, pRSK) in combination with trametinib [2]: not observed

SMILES: Nc1ncnc2c1ncn2[C@@H]1O[C@H](COP(=O)(O)OP(=O)(O)OP(=O)(O)O)[C@@H](O)[C@H]1O [ATP, reference compound]
IC50 ([1]; competition with free ATP, purified KSR2:MEK1, read-out: free ATP IC50, ATPbiotin labeling of KSR2): 86 µM
IC50 [4]: 133 µM

SMILES: CC(C)(C)c1nc(-c2cccc(NS(=O)(=O)c3c(F)cccc3F)c2F)c(-c2ccnc(N)n2)s1 [dabrafenib, reference compound]
suppression of KSR-stimulated MEK and ERK phosphorylation [5]: active
suppression of KSR-stimulated MAPK signaling with active site mutant KSR^A690F ([5]; KSR^A690F mutant): active

SMILES: COc1cc2nccc(Nc3ccc(Oc4ccccc4)cc3)c2cc1OC.Cl [Compound 11, 6,7-Dimethoxy-N-(4-phenoxyphenyl)quinolin-4-amine hydrochloride]
competition of ATPbiotin probe labeling in KSR2:MEK1 complexes (in words) [1]: moderately tolerated

SMILES: COc1ccc(Nc2ncnc3cc(OC)c(OC)cc23)cc1 [Compound 3, 6,7-Dimethoxy-N-(4-methoxyphenyl)quinazolin-4-amine hydrochloride]
IC50 [1, 6]: > 10 µM

SMILES: CCCS(=O)(=O)Nc1ccc(F)c(C(=O)c2c[nH]c3ncc(Cl)cc23)c1F [PLX4720]
MAPK pathway inhibition (pERK, pMEK, pRSK) in combination with trametinib [2]: did not display the same pathway inhibition

The next lines start with results.

KSR binding (assessed) [1]: non-KSR binders
SMILES: CCN(CC)CCNC(=O)c1c(C)[nH]c(/C=C2\C(=O)Nc3ccc(F)cc32)c1C [sutent, reference compound]
MAPK pathway inhibition (pERK, pMEK, pRSK) in combination with trametinib [2]: not observed

KSR binding (assessed) [1]: non-KSR binders
SMILES: CS(=O)(=O)CCNCc1ccc(-c2ccc3ncnc(Nc4ccc(OCc5cccc(F)c5)c(Cl)c4)c3c2)o1 [lapatinib, reference compound]
MAPK pathway inhibition (pERK, pMEK, pRSK) in combination with trametinib [2]: not observed

enhancement of KSR2:B-RAF dimerization [3]: ~2 fold
SMILES: CC(=O)Nc1cccc(-n2c(=O)n(C3CC3)c(=O)c3c(Nc4ccc(I)cc4F)n(C)c(=O)c(C)c32)c1 [trametinib, reference compound]
MAPK pathway inhibition (pERK, pMEK, pRSK), single agent ([2]; alone, compared with Compound 21 + trametinib co-treatment): did not display the same pathway inhibition

IC50 [1, 6]: > 10 µM
SMILES: COc1cc2ncnc(Nc3ccc(O)cc3)c2cc1OC [Compound 7, 4-((6,7-Dimethoxyquinazolin-4-yl)amino)phenol hydrochloride]

KSR binding (assessed) [1]: non-KSR binders
SMILES: C#Cc1cccc(Nc2ncnc3cc(OCCOC)c(OCCOC)cc23)c1 [erlotinib, reference compound]
MAPK pathway inhibition (pERK, pMEK, pRSK) in combination with trametinib [2]: not observed

IC50 [1, 6]: > 10 µM
competition of ATPbiotin probe labeling in KSR2:MEK1 complexes (in words) [1]: greatly diminishes KSR2:MEK1 activity
SMILES: COc1cc2/c(=N/c3ccc(Oc4ccccc4)cc3)ncn(C)c2cc1OC [Compound 32, (Z)—N-(6,7-Dimethoxy-1-methylquinazolin-4(1H)-ylidene)-4-phenoxyaniline]

IC50 [1, 6]: > 10 µM
SMILES: COc1cc2ncnc(Nc3ccc(Oc4ccccc4)c(C)c3C)c2cc1OC.Cl [Compound 50, N-(2,3-Dimethyl-4-phenoxyphenyl)-6,7-dimethoxyquinazolin-4-amine hydrochloride]
suppression of KSR-stimulated MEK and ERK phosphorylation [5]: inactive
